Laboratory results: patent EP0072137A1, “Antiviral deoxyuridine compounds” (BEECHAM GROUP PLC, priority 1981, dated 1983)
Converted amounts (≈) assume the structure as drawn. Read-outs that look alike come from different tables or passages of the source.

Key:
[1] = In vivo blood level study: antiviral activity of mouse serum titrated in plaque inhibition assays; set-up: species or system Balb/c mice
Protocol: Single 100 mg/kg doses of the compound were administered orally as suspensions in carboxymethyl cellulose to groups of 3 starved female Balb/c mice. Blood was collected 120 minutes after dosing and the serum separated and stored at -20°C. Heat inactivated sera from single mice were titrated in plaque inhibition assays using the KOS strain of Herpes simplex type 1 virus in Vero cell monolayers. Antiviral activity is calculated by extrapolation from a standard inhibition dose response curve for E-5-(2-bromovinyl)-2'-deoxyuridine and is quoted as the equivalent concentration of E-5-(2-bromovinyl)-2'-deoxyuridine (in ug/mL) giving the same antiviral activity in cell culture.

[2] = tested on: Herpes simplex type 1 virus (HFEM strain); assay: Plaque reduction assay in cell culture; type: cell-based; details: Human alphaherpesvirus 1, 144 h; concentration causing a 50% reduction in the number of virus plaques; HSV-1 HFEM strain in Vero cells, 37°C, 6 days; read-out: PDD50 (the source's name)
Protocol: (§1) Vero (African Green Monkey Kidney) cells were grown to confluence in 6 well multidishes, each well being 3.5 cm in diameter. The cells were incubated with Herpes simplex type 1 virus (HFEM strain) and overlaid with 0.5 ml of 0.9% agarose (w/v) in maintenance medium containing the test compound at a range of concentrations from 100 pg/mL in half-log dilution steps. The virus infected cultures were then incubated at 37°C for 6 days before fixing in 4% formaldehyde solution and staining with carbolfuchsin. The dishes were then examined to find what concentration of test compound causing a 50% reduction in the number of virus plaques formed (PDD50 value) and the minimum concentration of test compound which killed the cell monolayer, leaving a clear zone devoid of cells and virus plaques (MTD).

[3] = Toxicity to the cell monolayer (MTD) in the plaque reduction assay; type: cell-based; details: monkey; minimum concentration which killed the cell monolayer; Vero cells, 6 days
Protocol: as §1

SMILES | concentration at 2 h ([1]; po, 100 mg/kg) [ng/mL] | EC50 [2] [µg/mL] | MCC at 144 h [3] [µg/mL] | concentration at 2 h ([1]; single 100 mg/kg oral dose, suspension in carboxymethyl cellulose, starved female Balb/c mice, 120 minutes after dosing, HSV-1 KOS in Vero cell monolayers, read-out: Antiviral activity in serum, as equivalent concentration of E-5-(2-bromovinyl)-2'-deoxyuridine) [ng/mL]
Cn1c(=O)c(/C=C/Br)cn([C@H]2C[C@H](O)[C@@H](CO)O2)c1=O [Example 1, E-3-methyl-5-(2-bromovinyl)-2'-deoxyuridine] | 3100 ± 800 | 5.4 (≈ 15.6 µM) | > 100 | –
O=c1[nH]c(=O)n([C@H]2C[C@H](O)[C@@H](CO)O2)cc1/C=C/Br [E-5-(2-bromo-vinyl)-2'-deoxyuridine, E-5-(2-bromovinyl)-2'-deoxyuridine, reference compound] | – | – | – | 1700 ± 500
